Reference: patent publication US11207310B2 (PRILENIA NEUROTHERAPEUTICS LTD., priority 2016, dated 2021)
Read-outs that look alike come from different tables or passages of the source.

Test system: patients with HD
Source text: The mPPT quantifies the patient's performance in physical tasks (Brown 2000). It is a standardized 9-item test (standing static balance, chair rise, lift a book and put it on a shelf, put on and remove a jacket, pick up a penny from floor, turn 360 degrees, 50 feet walk, climb one flight of stairs, climb stairs test (flights up and down)), that measures the patient's performance on functional tasks. Both the speed and accuracy at which the patients complete the items are taken into account during scoring. The maximum score of the test is 36, with higher scores indicating better performance. The Multiple Sclerosis Walking Scale (MSWS-12) was adapted to become a generic measure of walking and mobility and renamed the Walk-12.
The secondary efficacy variable and endpoint, the Modified Physical Performance Test (mPPT), quantifies the patient's performance in physical tasks (Brown 2000). It is a standardized 9-item test that measures the patient's performance on functional tasks. Assistive devices are permitted for the tasks that require a standing position (items 6 to 9). Both the speed and accuracy at which the patients complete the items were taken into account during scoring. The maximum score of the test is 36, with higher scores indicating better performance.

[1] = 45 mg bid, HD1 and HD2 patients, 52 weeks
[2] = 45 mg bid, full analysis set, 26 weeks
[3] = 45 mg bid, full analysis set, 52 weeks
[4] = 45 mg bid, late stage HD patients with BL TFC<7, 52 weeks
[5] = 67.5 mg bid, HD1 and HD2 patients, 52 weeks
[6] = 67.5 mg bid, full analysis set, 26 weeks
[7] = 67.5 mg bid, full analysis set, 52 weeks
[8] = 67.5 mg bid, late stage HD patients with BL TFC<7, 52 weeks
[9] = 90 mg bid, HD1 and HD2 patients, 52 weeks
[10] = 90 mg bid, full analysis set, 26 weeks
[11] = 90 mg bid, full analysis set, 52 weeks
[12] = 90 mg bid, late stage HD patients with BL TFC<7, 52 weeks
[13] = 112.5 mg bid, HD1 and HD2 patients, 52 weeks
[14] = 112.5 mg bid, full analysis set, 26 weeks
[15] = 112.5 mg bid, full analysis set, 52 weeks
[16] = 112.5 mg bid, late stage HD patients with BL TFC<7, 52 weeks

SMILES: CCCN1CCC(c2cccc(S(C)(=O)=O)c2)CC1 [pridopidine, 4-[3-(methylsulfonyl)phenyl]-1-propyl-piperidine]
- Change from baseline in mPPT Climb One Flight of Stairs scores, Δ to placebo [1]: 0.27
- Change from baseline in mPPT Climb Stairs (Flights Up and Down) scores, Δ to placebo [1]: −0.01
- Change from baseline in mPPT Climb One Flight of Stairs scores, Δ to placebo (45 mg bid, HD1 patients, 52 weeks): −0.02
- Change from baseline in mPPT Climb One Flight of Stairs scores, Δ to placebo (45 mg bid, HD2 patients, 52 weeks): 0.35
- Change from baseline in mPPT Climb Stairs (Flights Up and Down) scores, Δ to placebo [2]: −0.03
- Δ to placebo: mPPT 50 Feet Walk scores, change from baseline [2]: −0.02
- Δ to placebo: mPPT Chair Rise scores [2]: 0.05
- Δ to placebo: mPPT Climb One Flight of Stairs scores, change from baseline [2]: 0.08
- Δ to placebo: mPPT Lift a Book and Put it on the Shelf scores, change from baseline [2]: 0.14
- Δ to placebo: mPPT Pick up a Penny from the Floor scores, change from baseline [2]: −0.13
- Δ to placebo: mPPT Put on and Remove a Jacket scores, change from baseline [2]: −0.22
- Δ to placebo: mPPT Turn 360 Degrees scores, change from baseline [2]: 0.12
- Δ to placebo: mPPT standing static balance scores [2]: 0.07
- Change from baseline in mPPT Climb Stairs (Flights Up and Down) scores, Δ to placebo [3]: 0.17
- Δ to placebo: mPPT 50 Feet Walk scores, change from baseline [3]: −0.03
- Δ to placebo: mPPT Chair Rise scores [3]: −0.05
- Δ to placebo: mPPT Climb One Flight of Stairs scores, change from baseline [3]: 0.26
- Δ to placebo: mPPT Lift a Book and Put it on the Shelf scores, change from baseline [3]: 0.25
- Δ to placebo: mPPT Pick up a Penny from the Floor scores, change from baseline [3]: 0.04
- Δ to placebo: mPPT Put on and Remove a Jacket scores, change from baseline [3]: 0.2
- Δ to placebo: mPPT Turn 360 Degrees scores, change from baseline [3]: −0.12
- Δ to placebo: mPPT standing static balance scores [3]: −0.15
- Change from baseline in mPPT Climb One Flight of Stairs scores, Δ to placebo (45 mg bid, late stage HD patients with BL TFC 0-6, 52 weeks): 0.19
- Change from baseline in mPPT Climb Stairs (Flights Up and Down) scores, Δ to placebo [4]: 0.72
- Δ to placebo: mPPT Climb One Flight of Stairs scores, change from baseline [4]: 0.19
- Change from baseline in mPPT Climb One Flight of Stairs scores, Δ to placebo [5]: 0.3
- Change from baseline in mPPT Climb Stairs (Flights Up and Down) scores, Δ to placebo [5]: 0.01
- Change from baseline in mPPT Climb One Flight of Stairs scores, Δ to placebo (67.5 mg bid, HD1 patients, 52 weeks): 0.01
- Change from baseline in mPPT Climb One Flight of Stairs scores, Δ to placebo (67.5 mg bid, HD2 patients, 52 weeks): 0.34
- Change from baseline in mPPT Climb Stairs (Flights Up and Down) scores, Δ to placebo [6]: −0.14
- Δ to placebo: mPPT 50 Feet Walk scores, change from baseline [6]: 0
- Δ to placebo: mPPT Chair Rise scores [6]: 0.01
- Δ to placebo: mPPT Climb One Flight of Stairs scores, change from baseline [6]: 0.11
- Δ to placebo: mPPT Lift a Book and Put it on the Shelf scores, change from baseline [6]: 0.1
- Δ to placebo: mPPT Pick up a Penny from the Floor scores, change from baseline [6]: 0.14
- Δ to placebo: mPPT Put on and Remove a Jacket scores, change from baseline [6]: 0.17
- Δ to placebo: mPPT Turn 360 Degrees scores, change from baseline [6]: −0.06
- Δ to placebo: mPPT standing static balance scores [6]: −0.2
- Change from baseline in mPPT Climb Stairs (Flights Up and Down) scores, Δ to placebo [7]: 0.04
- Δ to placebo: mPPT 50 Feet Walk scores, change from baseline [7]: 0.15
- Δ to placebo: mPPT Chair Rise scores [7]: −0.1
- Δ to placebo: mPPT Climb One Flight of Stairs scores, change from baseline [7]: 0.13
- Δ to placebo: mPPT Lift a Book and Put it on the Shelf scores, change from baseline [7]: 0.17
- Δ to placebo: mPPT Pick up a Penny from the Floor scores, change from baseline [7]: 0.09
- Δ to placebo: mPPT Put on and Remove a Jacket scores, change from baseline [7]: 0.21
- Δ to placebo: mPPT Turn 360 Degrees scores, change from baseline [7]: −0.1
- Δ to placebo: mPPT standing static balance scores [7]: −0.19
- Change from baseline in mPPT Climb One Flight of Stairs scores, Δ to placebo (67.5 mg bid, late stage HD patients with BL TFC 0-6, 52 weeks): −0.3
- Change from baseline in mPPT Climb Stairs (Flights Up and Down) scores, Δ to placebo [8]: 0.16
- Δ to placebo: mPPT Climb One Flight of Stairs scores, change from baseline [8]: −0.3
- Change from baseline in mPPT Climb One Flight of Stairs scores, Δ to placebo [9]: 0.22
- Change from baseline in mPPT Climb Stairs (Flights Up and Down) scores, Δ to placebo [9]: 0.1
- Change from baseline in mPPT Climb One Flight of Stairs scores, Δ to placebo (90 mg bid, HD1 patients, 52 weeks): −0.06
- Change from baseline in mPPT Climb One Flight of Stairs scores, Δ to placebo (90 mg bid, HD2 patients, 52 weeks): 0.28
- Change from baseline in mPPT Climb Stairs (Flights Up and Down) scores, Δ to placebo [10]: −0.08
- Δ to placebo: mPPT 50 Feet Walk scores, change from baseline [10]: −0.1
- Δ to placebo: mPPT Chair Rise scores [10]: 0.01
- Δ to placebo: mPPT Climb One Flight of Stairs scores, change from baseline [10]: 0.15
- Δ to placebo: mPPT Lift a Book and Put it on the Shelf scores, change from baseline [10]: 0.04
- Δ to placebo: mPPT Pick up a Penny from the Floor scores, change from baseline [10]: 0.1
- Δ to placebo: mPPT Put on and Remove a Jacket scores, change from baseline [10]: −0.01
- Δ to placebo: mPPT Turn 360 Degrees scores, change from baseline [10]: 0.12
- Δ to placebo: mPPT standing static balance scores [10]: −0.1
- Change from baseline in mPPT Climb Stairs (Flights Up and Down) scores, Δ to placebo [11]: −0.04
- Δ to placebo: mPPT 50 Feet Walk scores, change from baseline [11]: −0.23
- Δ to placebo: mPPT Chair Rise scores [11]: −0.31
- Δ to placebo: mPPT Climb One Flight of Stairs scores, change from baseline [11]: 0.08
- Δ to placebo: mPPT Lift a Book and Put it on the Shelf scores, change from baseline [11]: 0.22
- Δ to placebo: mPPT Pick up a Penny from the Floor scores, change from baseline [11]: 0.14
- Δ to placebo: mPPT Put on and Remove a Jacket scores, change from baseline [11]: 0.08
- Δ to placebo: mPPT Turn 360 Degrees scores, change from baseline [11]: 0.04
- Δ to placebo: mPPT standing static balance scores [11]: −0.14
- Change from baseline in mPPT Climb One Flight of Stairs scores, Δ to placebo (90 mg bid, late stage HD patients with BL TFC 0-6, 52 weeks): −0.26
- Change from baseline in mPPT Climb Stairs (Flights Up and Down) scores, Δ to placebo [12]: −0.36
- Δ to placebo: mPPT Climb One Flight of Stairs scores, change from baseline [12]: −0.26
- Change from baseline in mPPT Climb One Flight of Stairs scores, Δ to placebo [13]: 0.23
- Change from baseline in mPPT Climb Stairs (Flights Up and Down) scores, Δ to placebo [13]: 0.07
- Change from baseline in mPPT Climb One Flight of Stairs scores, Δ to placebo (112.5 mg bid, HD1 patients, 52 weeks): 0.18
- Change from baseline in mPPT Climb One Flight of Stairs scores, Δ to placebo (112.5 mg bid, HD2 patients, 52 weeks): 0.23
- Change from baseline in mPPT Climb Stairs (Flights Up and Down) scores, Δ to placebo [14]: −0.08
- Δ to placebo: mPPT 50 Feet Walk scores, change from baseline [14]: −0.17
- Δ to placebo: mPPT Chair Rise scores [14]: 0.12
- Δ to placebo: mPPT Climb One Flight of Stairs scores, change from baseline [14]: 0.16
- Δ to placebo: mPPT Lift a Book and Put it on the Shelf scores, change from baseline [14]: 0.14
- Δ to placebo: mPPT Pick up a Penny from the Floor scores, change from baseline [14]: 0.07
- Δ to placebo: mPPT Put on and Remove a Jacket scores, change from baseline [14]: −0.03
- Δ to placebo: mPPT Turn 360 Degrees scores, change from baseline [14]: 0.2
- Δ to placebo: mPPT standing static balance scores [14]: 0.05
- Change from baseline in mPPT Climb Stairs (Flights Up and Down) scores, Δ to placebo [15]: 0.1
- Δ to placebo: mPPT 50 Feet Walk scores, change from baseline [15]: −0.15
- Δ to placebo: mPPT Chair Rise scores [15]: −0.12
- Δ to placebo: mPPT Climb One Flight of Stairs scores, change from baseline [15]: 0.11
- Δ to placebo: mPPT Lift a Book and Put it on the Shelf scores, change from baseline [15]: 0.12
- Δ to placebo: mPPT Pick up a Penny from the Floor scores, change from baseline [15]: 0.07
- Δ to placebo: mPPT Put on and Remove a Jacket scores, change from baseline [15]: −0.18
- Δ to placebo: mPPT Turn 360 Degrees scores, change from baseline [15]: −0.08
- Δ to placebo: mPPT standing static balance scores [15]: −0.12
- Change from baseline in mPPT Climb One Flight of Stairs scores, Δ to placebo (112.5 mg bid, late stage HD patients with BL TFC 0-6, 52 weeks): −0.15
- Change from baseline in mPPT Climb Stairs (Flights Up and Down) scores, Δ to placebo [16]: 0.31
- Δ to placebo: mPPT Climb One Flight of Stairs scores, change from baseline [16]: −0.15
